# What was measured:
# Format in all cases: functional, Homo sapiens
# Design in all cases: dose or concentration left out as unconfirmed
# Colon cancer organoid [1] = assay: Identification of compartment-specific drug sensitivities in O14 CRC organoid-stroma F14 CAF co-cultures. Organoid is transduced with Lucferase2-P2A-EGFP lentivirus, fibroblast with Renilla-dsRed lentivirus. Dual-Glo Luciferase assay is used to report viability data.
# Colon cancer organoid [2] = assay: Identification of compartment-specific drug sensitivities in O06 CRC organoid-stroma F06 CAF co-cultures. Organoid is transduced with Lucferase2-P2A-EGFP lentivirus, fibroblast with Renilla-dsRed lentivirus. Dual-Glo Luciferase assay is used to report viability data.
# Colon cancer organoid [3] = assay: Identification of compartment-specific drug sensitivities in O20 CRC organoid-stroma F20 CAF co-cultures. Organoid is transduced with Lucferase2-P2A-EGFP lentivirus, fibroblast with Renilla-dsRed lentivirus. Dual-Glo Luciferase assay is used to report viability data.
# [4] = Transduced with Lucferase2-P2A-EGFP lentivirus
# [5] = Transduced with Renilla-dsRed lentivirus
Structure (SMILES),Cell Viability (Colon cancer organoid [1]; [4]) [%],Cell Viability (Colon cancer organoid [1]; [5]) [%],Cell Viability (Colon cancer organoid [2]; [4]) [%],Cell Viability (Colon cancer organoid [2]; [5]) [%],Cell Viability (Colon cancer organoid [3]; [4]) [%],Cell Viability (Colon cancer organoid [3]; [5]) [%]
CC(C)Oc1ccc(-c2nn([C@@H](C)c3oc4ccc(F)cc4c(=O)c3-c3cccc(F)c3)c3ncnc(N)c23)cc1F [UMBRALISIB],161.449,91.4949,96.678,112.425,103.314,87.858
CC[C@@H]1CN(C(=O)NCC(F)(F)F)C[C@@H]1c1cnc2cnc3[nH]ccc3n12 [UPADACITINIB],147.848,94.1248,104.182,86.3482,123.879,83.5298
CNC(=O)c1ccccc1Nc1cc(Nc2ccc(N3CCOCC3)cc2OC)ncc1C(F)(F)F [VS-4718],18.7172,41.7282,52.8737,57.2971,13.9942,72.4438
O=C(NNS(=O)(=O)c1ccccc1F)c1cc(F)cc(-c2ccccn2)c1 [WM-1119],29.5498,87.8305,97.0333,108.11,69.0433,152.012
O=C(NNS(=O)(=O)c1ccccc1)c1cc(-c2ccnnc2)ccc1F [WM-2474],98.8891,109.079,92.1572,93.3483,104.944,126.08
C=CC(=O)N1CCC([C@@H]2CCNc3c(C(N)=O)c(-c4ccc(Oc5ccccc5)cc4)nn32)CC1 [ZANUBRUTINIB],25.5759,117.13,36.1998,136.235,8.4337,202.782
Nc1nc(NCc2ccccc2)nc(-c2cccc(CO)c2)n1 [ZINC32547799],98.7801,87.8082,97.3324,116.001,125.25,66.6285
FC(F)c1nc2ccccc2n1-c1nc(N2CCOCC2)nc(N2CCOCC2)n1 [ZSTK-474],72.7664,74.8211,29.4296,101.088,124.253,95.7276

# — ChEMBL document CHEMBL5608141, “Identification of compartment-specific drug sensitivities in CRC organoid-stroma co-cultures” (2024)
